Test results taken from patent US11845730B2, “1,3-substituted cyclobutyl derivatives and uses thereof” (Novartis AG, priority 2021, dated 2023).
Structures can show the parent of a compound that is named as a salt.

The molecules below were run against human TRPV1 (Homo sapiens (Human), UniProt Q8NER1). Settings: read-out: IC50 (μM), antagonist effect against human TRPV1; CHO cells expressing human TrpV1; stimulated with 2.5 μM NADA (EC80); mean of at least three independent experiments.
human TRPV1, sequence (Q8NER1 whole entry): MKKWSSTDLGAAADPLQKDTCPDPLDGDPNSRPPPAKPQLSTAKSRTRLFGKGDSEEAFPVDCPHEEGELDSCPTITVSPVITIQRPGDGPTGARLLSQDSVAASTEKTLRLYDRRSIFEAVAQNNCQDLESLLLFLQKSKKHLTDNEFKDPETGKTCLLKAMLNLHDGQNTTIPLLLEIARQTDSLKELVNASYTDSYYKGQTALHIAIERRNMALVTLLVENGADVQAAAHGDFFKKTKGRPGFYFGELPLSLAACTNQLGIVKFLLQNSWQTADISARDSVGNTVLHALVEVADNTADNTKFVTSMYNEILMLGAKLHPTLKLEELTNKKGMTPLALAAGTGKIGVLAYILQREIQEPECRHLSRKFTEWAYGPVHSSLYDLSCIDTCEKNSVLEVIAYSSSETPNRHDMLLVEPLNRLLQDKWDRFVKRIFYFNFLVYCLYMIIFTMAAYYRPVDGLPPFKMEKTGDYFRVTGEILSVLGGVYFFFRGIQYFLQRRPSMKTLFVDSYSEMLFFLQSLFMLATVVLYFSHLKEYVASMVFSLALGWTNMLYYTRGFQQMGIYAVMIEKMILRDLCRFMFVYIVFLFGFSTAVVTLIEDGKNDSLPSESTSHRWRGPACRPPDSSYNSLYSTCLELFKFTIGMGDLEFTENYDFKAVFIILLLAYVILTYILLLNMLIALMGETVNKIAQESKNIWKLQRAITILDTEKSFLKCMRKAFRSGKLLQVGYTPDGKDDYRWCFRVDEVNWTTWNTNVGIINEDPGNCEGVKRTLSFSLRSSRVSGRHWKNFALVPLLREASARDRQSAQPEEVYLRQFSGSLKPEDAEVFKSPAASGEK
Molecule `N#Cc1c(O[C@H]2C[C@H](NCc3c(F)ccc4cnccc34)C2)cccc1C(F)(F)F` [Example 61, 2-((1r,3r)-3-(((6-fluoroisoquinolin-5-yl)methyl)amino)cyclobutoxy)-6-(trifluoromethyl)benzonitrile] has an IC50 of 0.194 µM. `Fc1ccc2ccc(O[C@H]3C[C@H](NCc4c(F)ccc5cnccc45)C3)cc2c1` [Example 32, (1r,3r)-N-((6-fluoroisoquinolin-5-yl)methyl)-3-((7-fluoronaphthalen-2-yl)oxy)cyclobutan-1-amine, HCl] was tested, and the IC50 was 0.102 µM. `Fc1ccc(O[C@H]2C[C@H](NCc3c(F)ccc4cnccc34)C2)c(F)c1` [Example 26, (1r,3r)-3-(2,4-difluorophenoxy)-N-((6-fluoroisoquinolin-5-yl)methyl)cyclobutan-1-amine] gave an IC50 of 0.108 µM. With `Nc1cc2c(CN[C@H]3C[C@H](Oc4ccnc(C(F)(F)F)c4)C3)c(F)ccc2cn1` [Example 16, 6-fluoro-5-((((1r,3r)-3-((2-(trifluoromethyl)pyridin-4-yl)oxy)cyclobutyl)amino)methyl)isoquinolin-3-amine, HCl] the IC50 was 0.031 µM. With `Fc1ccc2cnccc2c1CN[C@H]1C[C@H](Oc2ccc(C(F)(F)F)nc2F)C1` [Example 58, (1r,3r)-3-((2-fluoro-6-(trifluoromethyl)pyridin-3-yl)oxy)-N-((6-fluoroisoquinolin-5-yl)methyl)cyclobutan-1-amine] the IC50 was 0.0829 µM. `Fc1ccc(O[C@H]2C[C@H](NCc3c(F)ccc4cnccc34)C2)cc1OC(F)(F)F` [Example 38, (1r,3r)-3-(4-fluoro-3-(trifluoromethoxy)phenoxy)-N-((6-fluoroisoquinolin-5-yl)methyl)cyclobutan-1-amine, HCl] gave an IC50 of 0.0514 µM. `OCc1cc(F)c(CN[C@H]2C[C@@H](Oc3ccc(F)c(C(F)(F)F)c3)C2)c2ccncc12` [Example 89, (6-fluoro-5-((((1s,3s)-3-(4-fluoro-3-(trifluoromethyl)phenoxy)cyclobutyl)amino)methyl)isoquinolin-8-yl)methanol, HCl] gave an IC50 of 0.44 µM. With `O=C(Cc1c(F)cc(CO)c2cnccc12)N[C@H]1C[C@H](Oc2ccc(F)c(C(F)(F)F)c2)C1` [Example 103, N-((1r,3r)-3-(4-fluoro-3-(trifluoromethyl)phenoxy)cyclobutyl)-2-(6-fluoro-8-(hydroxymethyl)isoquinolin-5-yl)acetamide] the IC50 was 0.00044 µM.
